Legend:
[1] = CSF levels after i.p. dosing in c57/Bl6 mice; assay type: in vivo, mouse
[2] = CSF levels after i.p. dosing in CD-1 mice; settings: zolmitriptan 3 and 10 mg/kg i.p., male CD-1 mice
[3] = molecular target: T1, rat recombinant 5-HT1b (r5-HT1b) receptors (Rattus norvegicus, UniProt P28564); test: SPA-based 35S-GTPγS binding assay (functional); assay type: biochemical
T1 construct: expressed in transfected cells
Protocol: In this study in vitro binding assays were conducted to measure the affinity of zolmitriptan and its active metabolite NDMZ to rat and human 5-HT1B receptors.
Zolmitriptan was tested in a SPA-based 35S-GTPγS binding assay in cells expressing human 5-HT1b (h5-HT1b) receptors or rat recombinant 5-HT1b (r5-HT1b) receptors at ten concentrations in duplicate.

5-HT1b receptor = 5-HT1b receptor (Homo sapiens, UniProt P28222); test: 5-HT1b receptor occupancy and efficacy model, human dose estimate
Protocol: Specifically, 5-HT1b receptor occupancy and efficacy models measured potency of zolmitriptan and NMDZ at the 5-HT1b receptor and the ratio of zolmitriptan: NDMZ in human CSF. The 5-HT1b receptor efficacy model was used to predict the level of 5-HT1b activation (i.e., efficacy) by both zolmitriptan and NDMZ based on the concentration of zolmitriptan in the CSF. From this target zolmitriptan dose ranges required to achieve an effective CSF exposures in humans were calculated.
Using classical receptor theory, the receptor occupancy when considering two ligands (i.e., entities) can be predicted using the following relationship:
Total % occupancy=(% occupancy by A)+{[100%−(% occupancy by A)]×(% occupancy by B)} when considering a fixed concentration of both A and B.
Total % Efficacy={[Zolmitriptan]/([Zolmitriptan]+Ki,Z)}+(100−{[Zolmitriptan]/([Zolmitriptan]+Ki,Z)}×{[NDMZ]/([NDMZ]+Ki,N)}

CD-1 mice = test: Resident-Intruder (RI) assay of aggression; assay type: in vivo, mouse; settings: 10 mg/kg
Protocol: Correspondingly, the RI assay has been used preclinically to study the effect of drugs on rodent aggression (Miczek et al., 2001). The RI assay typically relies on the interpretation and scoring of offensive (resident animal) behavior patterns and may also include analysis of defensive (intruder animal) behavior patterns as well. […] Attack time was measured over a 5 min period as a cross over design.

Chain of 5-HT1b receptor (P28222 whole entry): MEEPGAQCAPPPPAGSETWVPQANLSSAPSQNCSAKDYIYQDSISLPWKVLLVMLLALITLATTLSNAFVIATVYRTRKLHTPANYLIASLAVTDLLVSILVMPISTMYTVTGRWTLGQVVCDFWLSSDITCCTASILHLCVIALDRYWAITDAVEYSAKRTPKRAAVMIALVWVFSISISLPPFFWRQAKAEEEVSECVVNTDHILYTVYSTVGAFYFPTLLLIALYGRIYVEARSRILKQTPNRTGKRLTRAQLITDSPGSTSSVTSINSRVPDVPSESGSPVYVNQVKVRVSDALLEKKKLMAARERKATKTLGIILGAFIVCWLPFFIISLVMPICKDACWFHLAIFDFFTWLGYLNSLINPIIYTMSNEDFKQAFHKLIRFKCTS
T1 sequence (P28564 whole entry): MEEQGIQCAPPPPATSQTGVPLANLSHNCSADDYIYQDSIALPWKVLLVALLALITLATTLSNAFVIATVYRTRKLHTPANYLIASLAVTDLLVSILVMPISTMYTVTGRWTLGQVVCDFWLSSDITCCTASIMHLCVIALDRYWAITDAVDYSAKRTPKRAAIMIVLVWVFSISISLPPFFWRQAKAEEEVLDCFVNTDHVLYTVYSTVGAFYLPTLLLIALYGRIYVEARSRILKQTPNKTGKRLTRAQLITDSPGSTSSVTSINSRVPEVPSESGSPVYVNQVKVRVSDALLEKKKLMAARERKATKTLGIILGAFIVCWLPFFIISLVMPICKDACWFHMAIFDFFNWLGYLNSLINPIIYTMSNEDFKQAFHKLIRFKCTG

Compound	metabolite level in CSF after zolmitriptan dosing ([1]; zolmitriptan 10 mg/kg i.p., male c57/Bl6 mice)	metabolite level after zolmitriptan dosing [2]	CSF Cmax ([1]; 10 mg/Kg i.p., c57/Bl6 ASD mouse model)	activity in GTPgS at CSF Cmax (EC36) ([3]; CSF Cmax 18.8 nM, CD-1 mice, 3 mg/Kg i.p.)	activity in GTPgS at CSF Cmax (EC65) ([3]; CSF Cmax 62 nM, c57/Bl6 mice, 10 mg/Kg i.p.)	CSF levels required for a therapeutic effect in humans, lower than in mice (5-HT1b receptor; based on human vs rat 5-HT1b EC50)	concentration for 50% Total Efficacy relative to the zolmitriptan EC50 (5-HT1b receptor; combined effect of the metabolite)	EC50 (5-HT1b receptor; read-out: concentration of zolmitriptan in human CSF predicted to induce 50% efficacy (EC50) of 5-HT1b by zolmitriptan and NDMZ, model, zolmitriptan: NDMZ 1.0:0.75)	reduction in attack time compared to risperidone (0.03 mg/kg) and vehicle control (CD-1 mice)
CNCCc1c[nH]c2ccc(C[C@H]3COC(=O)N3)cc12 [NDMZ, N-desmethyl zolmitriptan]	below the lower limit of quantification	below the lower limit of quantification	–	–	–	–	–	–	–
CN(C)CCc1c[nH]c2ccc(C[C@H]3COC(=O)N3)cc12 [Zolmitriptan, (4S)-4-[[3-[2-(dimethylamino)ethyl]-1H-indol-5-yl]methyl]-1,3-oxazolidin-2-one]	–	–	0.062 µM	36%	65%	about 8.3 fold	3.7 fold	1.09 nM	greater reduction in attack time
